The source made the active and inactive calls. The rule behind the calls is not given here.

This data set relates to rodent carcinogenicity bioassays, tumor incidence. Put plainly: CCRIS carcinogenicity studies. The gist of the method:
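Archive of carcinogenicity, mutagenicity, tumor promotion and tumor inhibition results drawn from journals, NCI reports and other sources, expert-reviewed; covers 1985-2011 and is no longer updated.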

Regarding `CCN(Cc1cccc(S(=O)(=O)O)c1)c1ccc(C(=C2C=CC(=[N+](CC)Cc3cccc(S(=O)(=O)O)c3)C=C2)c2ccc(O)cc2S(=O)(=O)[O-])cc1`, the carcinogen call by setting is: (Species: MOUSE, Strain/Sex: SWISS-WEBSTER/FEMALE, Route: DERMAL, Dose: 0, 1% IN 0.1 ML DISTILLED WATER 1/WK FOR 19.5 MO (STUDY DURATION: 19.5 MO)) “inactive; negative”; (Species: MOUSE, Strain/Sex: SWISS-WEBSTER/MALE, Route: DERMAL, Dose: 0, 1% IN 0.1 ML DISTILLED WATER 1/WK FOR 19.5 MO (STUDY DURATION: 19.5 MO)) “inactive; negative”; (Species: RAT, Strain/Sex: FISCHER/FEMALE, Route: SUBCUTANEOUS, Dose: 0, 0.5 ML OF 3% SOLUTION IN DISTILLED WATER (0; 15 MG) 2/WK FOR 26 WK THEN 1/WK FOR 22 WK (STUDY DURATION: 11 MO), Dose: 0, 0.5 ML OF 3% SOLUTION IN DISTILLED WATER (0; 15 MG) 2/WK FOR 26 WK THEN 1/WK FOR 22 WK (STUDY DURATION: 11 MO), Tumor Site: Type of Lesion: INJECTION SITE: FIBROSARCOMA) “active; positive”; (Species: RAT, Strain/Sex: FISCHER/FEMALE, Route: SUBCUTANEOUS, Dose: 0, 0.5 ML OF 6% SOLUTION IN DISTILLED WATER (0; 30 MG) 2/WK FOR 19 WK THEN 3% SOLUTION (0; 15 MG) 2/WK FOR 9 WK FOLLOWED, Dose: 0, 0.5 ML OF 6% SOLUTION IN DISTILLED WATER (0; 30 MG) 2/WK FOR 19 WK THEN 3% SOLUTION (0; 15 MG) 2/WK FOR 9 WK FOLLOWED, Tumor Site: Type of Lesion: INJECTION SITE: FIBROSARCOMA) “active; positive”.
Consider `FCC(F)(F)F`, for which the carcinogen call is, setting by setting: (Species: MOUSE, Strain/Sex: B6C3F1/FEMALE, Route: INHALATION, Dose: 0, 2500, 15000, 75000 PPM SNOUT-ONLY INHALATION 1 HR/D FOR AT LEAST 104 WK (STUDY DURATION: 106 WK), Dose: 0, 2500, 15000, 75000 PPM SNOUT-ONLY INHALATION 1 HR/D FOR AT LEAST 104 WK (STUDY DURATION: 106 WK)) “inactive; negative”; (Species: MOUSE, Strain/Sex: B6C3F1/MALE, Route: INHALATION, Dose: 0, 2500, 15000, 75000 PPM SNOUT-ONLY INHALATION 1 HR/D FOR AT LEAST 104 WK (STUDY DURATION: 106 WK), Dose: 0, 2500, 15000, 75000 PPM SNOUT-ONLY INHALATION 1 HR/D FOR AT LEAST 104 WK (STUDY DURATION: 106 WK)) “inactive; negative”; (Species: RAT, Strain/Sex: ALPK:APFSD/FEMALE, Route: INHALATION, Dose: 0, 2500, 10000, 50000 PPM 6 HR/D 5 D/WK FOR 104 WK (STUDY DURATION: 104 WK), Dose: 0, 2500, 10000, 50000 PPM 6 HR/D 5 D/WK FOR 104 WK (STUDY DURATION: 104 WK)) “inactive; negative”; (Species: RAT, Strain/Sex: ALPK:APFSD/MALE, Route: INHALATION, Dose: 0, 2500, 10000, 50000 PPM 6 HR/D 5 D/WK FOR 104 WK (STUDY DURATION: 104 WK), Dose: 0, 2500, 10000, 50000 PPM 6 HR/D 5 D/WK FOR 104 WK (STUDY DURATION: 104 WK), Tumor Site: Type of Lesion: TESTES: LEYDIG CELL ADENOMA) “active; positive”; (Species: RAT, Strain/Sex: WISTAR/FEMALE, Route: INHALATION, Dose: 0, 2500, 10000, 50000 PPM SNOUT-ONLY INHALATION 1 HR/D FOR AT LEAST 108 WK (STUDY DURATION: 110 WK), Dose: 0, 2500, 10000, 50000 PPM SNOUT-ONLY INHALATION 1 HR/D FOR AT LEAST 108 WK (STUDY DURATION: 110 WK)) “inactive; negative”; (Species: RAT, Strain/Sex: WISTAR/MALE, Route: INHALATION, Dose: 0, 2500, 10000, 50000 PPM SNOUT-ONLY INHALATION 1 HR/D FOR AT LEAST 108 WK (STUDY DURATION: 110 WK), Dose: 0, 2500, 10000, 50000 PPM SNOUT-ONLY INHALATION 1 HR/D FOR AT LEAST 108 WK (STUDY DURATION: 110 WK)) “inactive; negative”.
In the case of `O=C1CCCCCN1`, the carcinogen call (Species: MOUSE, Strain/Sex: B6C3F1/FEMALE, Route: ORAL, Dose: 0, 7500, 15000 PPM IN DIET, Dose: 0, 7500, 15000 PPM IN DIET) is “inactive; negative”; the carcinogen call (Species: MOUSE, Strain/Sex: B6C3F1/MALE, Route: ORAL, Dose: 0, 7500, 15000 PPM IN DIET, Dose: 0, 7500, 15000 PPM IN DIET) was “inactive; negative”; the carcinogen call (Species: RAT, Strain/Sex: F344/FEMALE, Route: ORAL, Dose: 0, 3750, 7500 PPM IN DIET, Dose: 0, 3750, 7500 PPM IN DIET) was “inactive; negative”; the carcinogen call (Species: RAT, Strain/Sex: F344/MALE, Route: ORAL, Dose: 0, 3750, 7500 PPM IN DIET, Dose: 0, 3750, 7500 PPM IN DIET) was “inactive; negative”.
As for `CCOc1ccc(N(O)C(C)=O)cc1`, under “Species: RAT, Strain/Sex: ALBINO/MALE, Route: ORAL, Dose: 0.05, 0.1, 0.5% IN DIET, Dose: 0.05, 0.1, 0.5% IN DIET, Tumor Site: Type of Lesion: LIVER: HEPATOCELLULAR CARCINOMA”, the carcinogen call was “active; positive”.
`C=C(C)[C@H]1Cc2c(ccc3c2O[C@@H]2COc4cc(OC)c(OC)cc4[C@@H]2C3=O)O1`: the carcinogen call is, setting by setting: (Species: MOUSE, Strain/Sex: B6C3F1/FEMALE, Route: ORAL, Dose: 0, 600, 1200 PPM IN DIET FOR 103 WK (STUDY DURATION: 105 WK), Dose: 0, 600, 1200 PPM IN DIET FOR 103 WK (STUDY DURATION: 105 WK)) “inactive; negative”; (Species: MOUSE, Strain/Sex: B6C3F1/MALE, Route: ORAL, Dose: 0, 600, 1200 PPM IN DIET FOR 103 WK (STUDY DURATION: 105 WK), Dose: 0, 600, 1200 PPM IN DIET FOR 103 WK (STUDY DURATION: 105 WK)) “inactive; negative”; (Species: RAT, Strain/Sex: F344/FEMALE, Route: ORAL, Dose: 0, 38, 75 PPM IN DIET FOR 103 WK (STUDY DURATION: 105 WK), Dose: 0, 38, 75 PPM IN DIET FOR 103 WK (STUDY DURATION: 105 WK)) “inactive; negative”; (Species: RAT, Strain/Sex: F344/MALE, Route: ORAL, Dose: 0, 38, 75 PPM IN DIET FOR 103 WK (STUDY DURATION: 105 WK), Dose: 0, 38, 75 PPM IN DIET FOR 103 WK (STUDY DURATION: 105 WK), Tumor Site: Type of Lesion: PARATHYROID GLAND: ADENOMA) “equivocal”; (Species: RAT, Strain/Sex: WISTAR/FEMALE, Route: INTRAPERITONEAL, Dose: 0, 1, 2 MG/KG IN SUNFLOWER OIL 5 D/WK FOR 8 WK (STUDY DURATION: 18 MO), Dose: 0, 1, 2 MG/KG IN SUNFLOWER OIL 5 D/WK FOR 8 WK (STUDY DURATION: 18 MO)) “inactive; negative”; (Species: RAT, Strain/Sex: WISTAR/FEMALE, Route: INTRAPERITONEAL, Dose: 0, 1, 2 MG/KG IN SUNFLOWER OIL/CHLOROFORM (9:1) 5 D/WK FOR 8 WK (STUDY DURATION: 18 MO), Dose: 0, 1, 2 MG/KG IN SUNFLOWER OIL/CHLOROFORM (9:1) 5 D/WK FOR 8 WK (STUDY DURATION: 18 MO)) “inactive; negative”.
In the case of `CCNC(=O)N(C=O)CCN(C)C`, the carcinogen call is “active; positive” (Species: RAT, Strain/Sex: F344/FEMALE, Route: INTRAGASTRIC, Dose: 0, 25 MG/ML CORN OIL/ETHYL ACETATE (2:1) SOLUTION ADMINISTERED AS 0.2 ML 2/WK FOR 37 WK (STUDY DURATION: 102 WK), Tumor Site: Type of Lesion: NASAL CAVITY: ADENOMA) and “inactive; negative” (Species: RAT, Strain/Sex: F344/MALE, Route: INTRAGASTRIC, Dose: 0, 25 MG/ML CORN OIL/ETHYL ACETATE (2:1) SOLUTION ADMINISTERED AS 0.2 ML 2/WK FOR 37 WK (STUDY DURATION: 102 WK)).
As to `c1ccc2c(c1)cc1ccc3cccc4c5ccccc5c2c1c34`, the carcinogen call runs as follows: (Species: MOUSE, Route: DERMAL, Tumor Site: Type of Lesion: INTEGUMENTARY SYSTEM (SKIN)) “active; positive”; (Species: MOUSE, Route: SUBCUTANEOUS, Tumor Site: Type of Lesion: INJECTION SITE) “active; positive”; (Species: MOUSE, Strain/Sex: SWISS/FEMALE, Route: DERMAL, Dose: 0, 1, 4, 8 NMOL IN 100 µL ACETONE 2/WK FOR 40 WK (STUDY DURATION: 48 WK), Dose: 0, 1, 4, 8 NMOL IN 100 µL ACETONE 2/WK FOR 40 WK (STUDY DURATION: 48 WK), Tumor Site: Type of Lesion: SKIN: TUMORS) “active; positive”; (Species: Mouse, Strain/Sex: B6129SF1/J v 129S1/SvImJ crosses, Route: Transplacental, Dose: 15 mg/kg bw in corn oil to dams on day 18 of gestation, study duration 10 months, Tumor Site: Type of Lesion: Lung and liver tumors) “active; positive”; (Species: Mouse, Strain/Sex: B6129SF1x129S1/Svlmj/Male and female (215 in 4 groups), Route: In utero, nursing, or in utero and nursing, Dose: 15 mg/kg, gavage to pregnant B6129SF1 females, once on day 17 of pregnancy (Study duration 10 months from birth), Tumor Site: Type of Lesion: Lung) “active; positive (surviving offspring exhibited 100% incidence with multiplicity of appr”; (Species: RAT, Strain/Sex: SPRAGUE-DAWLEY/FEMALE, Route: INJECTION, Dose: 0, 0.25, 1 UMOL PER MAMMARY GLAND (STUDY DURATION: 24 WK), Dose: 0, 0.25, 1 UMOL PER MAMMARY GLAND (STUDY DURATION: 24 WK), Tumor Site: Type of Lesion: MAMMARY GLAND: TUMOR) “active; positive”.

Source of the values: PubChem BioAssay AID1259411 (Chemical Carcinogenesis Research Information System (CCRIS), 2018).
